The text below walks through data of ChEMBL document CHEMBL5625277, “Systematical mutational analysis of teriparatide on anti-osteoporosis activity by alanine scanning” (Bioorg Med Chem Lett, 2024).

The nature of this series: Cytotoxicity in pre-osteoblasts (unknown origin) assessed as cell death upto 5 uM by CCK8 assay. The series is classed as toxicity, cell-based. The following applies: pre-osteoblast. (Tetrazolium assays rely on reduction of a dye to a coloured formazan, in cell work by metabolically active cells.)

Regarding `CC[C@H](C)[C@H](NC(=O)[C@H](CCC(=O)O)NC(=O)[C@H](CO)NC(=O)[C@@H](NC(=O)[C@H](CO)NC(C)=O)C(C)C)C(=O)N[C@@H](CCC(N)=O)C(=O)N[C@@H](CC(C)C)C(=O)N[C@@H](CCSC)C(=O)N[C@@H](Cc1cnc[nH]1)C(=O)N[C@@H](CC(N)=O)C(=O)N[C@@H](CC(C)C)C(=O)NCC(=O)N[C@@H](CCCCN)C(=O)N[C@@H](Cc1cnc[nH]1)C(=O)N[C@@H](CC(C)C)C(=O)N[C@@H](CC(N)=O)C(=O)N[C@@H](CO)C(=O)N[C@@H](CCSC)C(=O)N[C@@H](CCC(=O)O)C(=O)N[C@@H](CCCNC(=N)N)C(=O)N[C@H](C(=O)N[C@@H](CCC(=O)O)C(=O)N[C@@H](Cc1c[nH]c2ccccc12)C(=O)N[C@@H](C)C(=O)N[C@@H](CCCNC(=N)N)C(=O)N[C@@H](CCCCN)C(=O)N[C@@H](CCCCN)C(=O)N[C@@H](CC(C)C)C(=O)N[C@@H](CCC(N)=O)C(=O)N[C@@H](CC(=O)O)C(=O)N[C@H](C(=O)N[C@@H](Cc1cnc[nH]1)C(=O)N[C@@H](CC(N)=O)C(=O)N[C@@H](Cc1ccccc1)C(N)=O)C(C)C)C(C)C`, the Activity result is on record as “Non-Toxic”.

Consider `CC[C@H](C)[C@H](NC(=O)[C@H](CCC(=O)O)NC(=O)[C@H](CO)NC(=O)[C@@H](NC(=O)[C@H](CO)NC(C)=O)C(C)C)C(=O)N[C@@H](CCC(N)=O)C(=O)N[C@@H](CC(C)C)C(=O)N[C@@H](CCSC)C(=O)N[C@@H](Cc1cnc[nH]1)C(=O)N[C@@H](CC(N)=O)C(=O)N[C@@H](CC(C)C)C(=O)NCC(=O)N[C@@H](CCCCN)C(=O)N[C@@H](Cc1cnc[nH]1)C(=O)N[C@@H](CC(C)C)C(=O)N[C@@H](CC(N)=O)C(=O)N[C@@H](CO)C(=O)N[C@@H](CCSC)C(=O)N[C@@H](CCC(=O)O)C(=O)N[C@@H](CCCNC(=N)N)C(=O)N[C@H](C(=O)N[C@@H](CCC(=O)O)C(=O)N[C@@H](Cc1c[nH]c2ccccc12)C(=O)N[C@@H](CC(C)C)C(=O)N[C@@H](CCCNC(=N)N)C(=O)N[C@@H](CCCCN)C(=O)N[C@@H](CCCCN)C(=O)N[C@@H](CC(C)C)C(=O)N[C@@H](CCC(N)=O)C(=O)N[C@@H](CC(=O)O)C(=O)N[C@H](C(=O)N[C@@H](C)C(=O)N[C@@H](CC(N)=O)C(=O)N[C@@H](Cc1ccccc1)C(N)=O)C(C)C)C(C)C`, for which the Activity result is listed as “Non-Toxic”.

Consider `CC[C@H](C)[C@H](NC(=O)[C@H](CCC(=O)O)NC(=O)[C@H](CO)NC(=O)[C@@H](NC(=O)[C@H](C)NC(C)=O)C(C)C)C(=O)N[C@@H](CCC(N)=O)C(=O)N[C@@H](CC(C)C)C(=O)N[C@@H](CCSC)C(=O)N[C@@H](Cc1cnc[nH]1)C(=O)N[C@@H](CC(N)=O)C(=O)N[C@@H](CC(C)C)C(=O)NCC(=O)N[C@@H](CCCCN)C(=O)N[C@@H](Cc1cnc[nH]1)C(=O)N[C@@H](CC(C)C)C(=O)N[C@@H](CC(N)=O)C(=O)N[C@@H](CO)C(=O)N[C@@H](CCSC)C(=O)N[C@@H](CCC(=O)O)C(=O)N[C@@H](CCCNC(=N)N)C(=O)N[C@H](C(=O)N[C@@H](CCC(=O)O)C(=O)N[C@@H](Cc1c[nH]c2ccccc12)C(=O)N[C@@H](CC(C)C)C(=O)N[C@@H](CCCNC(=N)N)C(=O)N[C@@H](CCCCN)C(=O)N[C@@H](CCCCN)C(=O)N[C@@H](CC(C)C)C(=O)N[C@@H](CCC(N)=O)C(=O)N[C@@H](CC(=O)O)C(=O)N[C@H](C(=O)N[C@@H](Cc1cnc[nH]1)C(=O)N[C@@H](CC(N)=O)C(=O)N[C@@H](Cc1ccccc1)C(N)=O)C(C)C)C(C)C`, for which the Activity entry was “Non-Toxic”.

For the compound `CC[C@H](C)[C@H](NC(=O)[C@H](CCC(=O)O)NC(=O)[C@H](CO)NC(=O)[C@@H](NC(=O)[C@H](CO)NC(C)=O)C(C)C)C(=O)N[C@@H](CCC(N)=O)C(=O)N[C@@H](CC(C)C)C(=O)N[C@@H](CCSC)C(=O)N[C@@H](Cc1cnc[nH]1)C(=O)N[C@@H](CC(N)=O)C(=O)N[C@@H](CC(C)C)C(=O)NCC(=O)N[C@@H](CCCCN)C(=O)N[C@@H](Cc1cnc[nH]1)C(=O)N[C@@H](CC(C)C)C(=O)N[C@@H](CC(N)=O)C(=O)N[C@@H](CO)C(=O)N[C@@H](CCSC)C(=O)N[C@@H](C)C(=O)N[C@@H](CCCNC(=N)N)C(=O)N[C@H](C(=O)N[C@@H](CCC(=O)O)C(=O)N[C@@H](Cc1c[nH]c2ccccc12)C(=O)N[C@@H](CC(C)C)C(=O)N[C@@H](CCCNC(=N)N)C(=O)N[C@@H](CCCCN)C(=O)N[C@@H](CCCCN)C(=O)N[C@@H](CC(C)C)C(=O)N[C@@H](CCC(N)=O)C(=O)N[C@@H](CC(=O)O)C(=O)N[C@H](C(=O)N[C@@H](Cc1cnc[nH]1)C(=O)N[C@@H](CC(N)=O)C(=O)N[C@@H](Cc1ccccc1)C(N)=O)C(C)C)C(C)C`, the Activity entry is recorded as “Non-Toxic”.

Turning to `CC[C@H](C)[C@H](NC(=O)[C@H](CCC(=O)O)NC(=O)[C@H](CO)NC(=O)[C@@H](NC(=O)[C@H](CO)NC(C)=O)C(C)C)C(=O)N[C@@H](CCC(N)=O)C(=O)N[C@@H](CC(C)C)C(=O)N[C@@H](CCSC)C(=O)N[C@@H](Cc1cnc[nH]1)C(=O)N[C@@H](CC(N)=O)C(=O)N[C@@H](CC(C)C)C(=O)NCC(=O)N[C@@H](CCCCN)C(=O)N[C@@H](Cc1cnc[nH]1)C(=O)N[C@@H](CC(C)C)C(=O)N[C@@H](CC(N)=O)C(=O)N[C@@H](CO)C(=O)N[C@@H](CCSC)C(=O)N[C@@H](CCC(=O)O)C(=O)N[C@@H](C)C(=O)N[C@H](C(=O)N[C@@H](CCC(=O)O)C(=O)N[C@@H](Cc1c[nH]c2ccccc12)C(=O)N[C@@H](CC(C)C)C(=O)N[C@@H](CCCNC(=N)N)C(=O)N[C@@H](CCCCN)C(=O)N[C@@H](CCCCN)C(=O)N[C@@H](CC(C)C)C(=O)N[C@@H](CCC(N)=O)C(=O)N[C@@H](CC(=O)O)C(=O)N[C@H](C(=O)N[C@@H](Cc1cnc[nH]1)C(=O)N[C@@H](CC(N)=O)C(=O)N[C@@H](Cc1ccccc1)C(N)=O)C(C)C)C(C)C`, the Activity result was “Non-Toxic”.

With `CC[C@H](C)[C@H](NC(=O)[C@H](CCC(=O)O)NC(=O)[C@H](CO)NC(=O)[C@@H](NC(=O)[C@H](CO)NC(C)=O)C(C)C)C(=O)N[C@@H](CCC(N)=O)C(=O)N[C@@H](CC(C)C)C(=O)N[C@@H](CCSC)C(=O)N[C@@H](Cc1cnc[nH]1)C(=O)N[C@@H](CC(N)=O)C(=O)N[C@@H](CC(C)C)C(=O)NCC(=O)N[C@@H](CCCCN)C(=O)N[C@@H](Cc1cnc[nH]1)C(=O)N[C@@H](CC(C)C)C(=O)N[C@@H](CC(N)=O)C(=O)N[C@@H](CO)C(=O)N[C@@H](CCSC)C(=O)N[C@@H](CCC(=O)O)C(=O)N[C@@H](CCCNC(=N)N)C(=O)N[C@H](C(=O)N[C@@H](CCC(=O)O)C(=O)N[C@@H](Cc1c[nH]c2ccccc12)C(=O)N[C@@H](CC(C)C)C(=O)N[C@@H](CCCNC(=N)N)C(=O)N[C@@H](C)C(=O)N[C@@H](CCCCN)C(=O)N[C@@H](CC(C)C)C(=O)N[C@@H](CCC(N)=O)C(=O)N[C@@H](CC(=O)O)C(=O)N[C@H](C(=O)N[C@@H](Cc1cnc[nH]1)C(=O)N[C@@H](CC(N)=O)C(=O)N[C@@H](Cc1ccccc1)C(N)=O)C(C)C)C(C)C`, the Activity result is given as “Non-Toxic”.

For `CC[C@H](C)[C@H](NC(=O)[C@H](CCC(=O)O)NC(=O)[C@H](CO)NC(=O)[C@@H](NC(=O)[C@H](CO)NC(C)=O)C(C)C)C(=O)N[C@@H](CCC(N)=O)C(=O)N[C@@H](CC(C)C)C(=O)N[C@@H](CCSC)C(=O)N[C@@H](Cc1cnc[nH]1)C(=O)N[C@@H](CC(N)=O)C(=O)N[C@@H](CC(C)C)C(=O)NCC(=O)N[C@@H](CCCCN)C(=O)N[C@@H](Cc1cnc[nH]1)C(=O)N[C@@H](CC(C)C)C(=O)N[C@@H](CC(N)=O)C(=O)N[C@@H](C)C(=O)N[C@@H](CCSC)C(=O)N[C@@H](CCC(=O)O)C(=O)N[C@@H](CCCNC(=N)N)C(=O)N[C@H](C(=O)N[C@@H](CCC(=O)O)C(=O)N[C@@H](Cc1c[nH]c2ccccc12)C(=O)N[C@@H](CC(C)C)C(=O)N[C@@H](CCCNC(=N)N)C(=O)N[C@@H](CCCCN)C(=O)N[C@@H](CCCCN)C(=O)N[C@@H](CC(C)C)C(=O)N[C@@H](CCC(N)=O)C(=O)N[C@@H](CC(=O)O)C(=O)N[C@H](C(=O)N[C@@H](Cc1cnc[nH]1)C(=O)N[C@@H](CC(N)=O)C(=O)N[C@@H](Cc1ccccc1)C(N)=O)C(C)C)C(C)C`, the Activity entry is listed as “Non-Toxic”.

With `CC[C@H](C)[C@H](NC(=O)[C@H](CCC(=O)O)NC(=O)[C@H](CO)NC(=O)[C@@H](NC(=O)[C@H](CO)NC(C)=O)C(C)C)C(=O)N[C@@H](CCC(N)=O)C(=O)N[C@@H](CC(C)C)C(=O)N[C@@H](CCSC)C(=O)N[C@@H](Cc1cnc[nH]1)C(=O)N[C@@H](CC(N)=O)C(=O)N[C@@H](CC(C)C)C(=O)NCC(=O)N[C@@H](CCCCN)C(=O)N[C@@H](Cc1cnc[nH]1)C(=O)N[C@@H](C)C(=O)N[C@@H](CC(N)=O)C(=O)N[C@@H](CO)C(=O)N[C@@H](CCSC)C(=O)N[C@@H](CCC(=O)O)C(=O)N[C@@H](CCCNC(=N)N)C(=O)N[C@H](C(=O)N[C@@H](CCC(=O)O)C(=O)N[C@@H](Cc1c[nH]c2ccccc12)C(=O)N[C@@H](CC(C)C)C(=O)N[C@@H](CCCNC(=N)N)C(=O)N[C@@H](CCCCN)C(=O)N[C@@H](CCCCN)C(=O)N[C@@H](CC(C)C)C(=O)N[C@@H](CCC(N)=O)C(=O)N[C@@H](CC(=O)O)C(=O)N[C@H](C(=O)N[C@@H](Cc1cnc[nH]1)C(=O)N[C@@H](CC(N)=O)C(=O)N[C@@H](Cc1ccccc1)C(N)=O)C(C)C)C(C)C`, the Activity result is recorded as “Non-Toxic”.

For `CC[C@H](C)[C@H](NC(=O)[C@H](CCC(=O)O)NC(=O)[C@H](CO)NC(=O)[C@@H](NC(=O)[C@H](CO)NC(C)=O)C(C)C)C(=O)N[C@@H](CCC(N)=O)C(=O)N[C@@H](CC(C)C)C(=O)N[C@@H](CCSC)C(=O)N[C@@H](Cc1cnc[nH]1)C(=O)N[C@@H](CC(N)=O)C(=O)N[C@@H](CC(C)C)C(=O)NCC(=O)N[C@@H](CCCCN)C(=O)N[C@@H](Cc1cnc[nH]1)C(=O)N[C@@H](CC(C)C)C(=O)N[C@@H](CC(N)=O)C(=O)N[C@@H](CO)C(=O)N[C@@H](CCSC)C(=O)N[C@@H](CCC(=O)O)C(=O)N[C@@H](CCCNC(=N)N)C(=O)N[C@H](C(=O)N[C@@H](CCC(=O)O)C(=O)N[C@@H](Cc1c[nH]c2ccccc12)C(=O)N[C@@H](CC(C)C)C(=O)N[C@@H](CCCNC(=N)N)C(=O)N[C@@H](CCCCN)C(=O)N[C@@H](CCCCN)C(=O)N[C@@H](CC(C)C)C(=O)N[C@@H](CCC(N)=O)C(=O)N[C@@H](CC(=O)O)C(=O)N[C@H](C(=O)N[C@@H](Cc1cnc[nH]1)C(=O)N[C@@H](CC(N)=O)C(=O)N[C@@H](Cc1ccccc1)C(N)=O)C(C)C)C(C)C`, the Activity entry is on record as “Non-Toxic”.
